The values below come from PMC12597529, “Interaction between W41 of the hepatitis B virus preS1 surface peptide and Y146/F274 of the cellular receptor molecule Na^+/taurocholate co-transporting polypeptide is essential for virus entry” (Molecular Pharmacology, 2025).

Test [1] concerns NTCP. As to conditions: most of these compounds, cited from earlier work. An excerpt:
The hepatitis B virus (HBV) belongs to the family of Hepadnaviridae. Its DNA genome encodes 3 surface proteins (HBs), namely small HBs, middle HBs, and large HBs.[1] The hepatitis D virus (HDV) is a small negative-sense RNA satellite virus and depends on the HBV envelope for entry into hepatocytes, assembly, and secretion of newly formed virions.[2] […] HBV/HDV attachment to NTCP occurs via the myristoylated preS1 domain (myr-pre ...

Test [2] concerns NTCP variants. To be noted: cited from earlier work. An excerpt: This is exemplified by the genetic c.800G>A variant (rs2296651) that is frequent in East Asian populations and that leads to S267F mutation of NTCP inside the tunnel structure. […] More detailed analysis ... || Interaction site A is formed between F13 and F14 of myr-preS1 and the amino acids Q264, F283, F284, and L287 (TM8b, EL4, and TM9) as well as F18 (TM1) of NTCP; interaction sites B between F23 of myr-preS1 and V29 and V32 of NTCP; and interaction site C between K38, D39, H40, and W41 of myr-preS1 and A273, F274, and P275 (TM8b, EL4, and TM9) as well as Y146 (of EL2) of NTCP. For some of these amino acids, mutation studies confirmed their role for the myr-preS1 interaction. […] However, this domain also covers the surface of NTCP and not the tunnel structure. Within the published structures N87 forms hydrogen binds with E43 and K46 of the myr-preS1 string structure, while for the NTCP amino acid residues 84 to 86 no interactions with the myr-preS1 peptide could be detected. As mouse Ntcp with the corresponding residues 84HLTS87 has S ...

The test system of test [3] is NTCPwt and NTCP-Y146A/F274A. Nature of the test: myr-preS1-AX568 peptide binding assay, NTCPwt-HEK293 vs NTCP-Y146A/F274A-HEK293 cells. Also on record: species or system human. To be noted: 5 to 160 nM, 37 °C, fluorescence, quadruplicate determinations, two-way ANOVA P < .01. The protocol: T-Rex Flp-In human embryonic kidney (HEK293) cells (Thermo Fisher Scientific; RRID CVCL_0045) were grown in 1:1 Dulbecco’s modified Eagle medium (DMEM)/Ham’s F12 (Gibco). Both media were supplemented with 10% fetal calf serum (Gibco), L-glutamine 4 mM (Gibco), penicillin 100 U/mL (Carl Roth), and streptomycin 100 μg/mL (Carl Roth). Stably transfected T-Rex Flp-In HEK293 cells were selected with 100 μg/mL hygromycin (Carl Roth). Expression of the recombinant NTCP proteins was induced with 5 μg/mL tetracycline treatment for 72 hours. All cell lines were cultivated in 5% CO2 atmosphere at 37 °C. Cell lines were routinely checked for possible mycoplasma contamination. […]
To study the HBV receptor function of NTCP, NTCPwt-HEK293 and NTCP-Y146A/F274A-HEK293 cells were incubated with the C-terminally Alexa 568 fluorophore-coupled myr-preS1 peptide (further referred to as myr-preS1-AX568), which consists of amino acids 2 to 48 of the large HBV genotype D3 surface protein (Biosynthesis). […] Myr-preS1-AX568 peptide binding was analyzed using Leica DMI6000 B inverted fluorescent microscope and LAS X software, or fluorescence was quantified with Spark multimode microplate reader (Spark Multimode Microplate, Tecan) (excitation: 570 nm, emission: 615 nm). […] Cell-associated radioactivity was quantified by liquid scintillation counting in a Packard Microplate Scintillation Counter TopCount NXT.

Test [4] addresses T1, human Na+/taurocholate co-transporting polypeptide, wild type, FLAG-tagged, on NTCPwt-HEK293 cells (human, UniProt Q14973 1-349).
T1 construct: also called NTCP-FLAG; NTCP-HEK293; source: T-Rex Flp-In HEK293, stably transfected (pcDNA5/FRT/TO), expression induced with tetracycline for 72 hours, on cells
T1 sequence (looked up): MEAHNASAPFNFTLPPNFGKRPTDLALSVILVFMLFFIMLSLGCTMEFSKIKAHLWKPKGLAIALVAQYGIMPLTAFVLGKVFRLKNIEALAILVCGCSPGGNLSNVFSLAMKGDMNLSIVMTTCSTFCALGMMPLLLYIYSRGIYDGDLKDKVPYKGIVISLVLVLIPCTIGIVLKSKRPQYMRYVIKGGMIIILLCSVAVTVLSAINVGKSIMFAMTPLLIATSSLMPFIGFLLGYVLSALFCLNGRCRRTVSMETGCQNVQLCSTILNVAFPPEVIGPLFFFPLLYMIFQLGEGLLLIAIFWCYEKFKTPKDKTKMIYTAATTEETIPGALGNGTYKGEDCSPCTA
The experiment in a line: radioligand binding; competition: 5 nM [3H]preS1 on tetracycline-induced NTCP-HEK293 cells in 96-well plates, 10 minutes at 37 °C in DMEM, after preincubation with increasing concentrations of unlabelled peptide; cells without tetracycline as 0% control; liquid scintillation counting; 2 independent experiments. To be noted: one partner purified.

For test [5], the target named is T1, human Na+/taurocholate co-transporting …. Nature of the test: cell-based or functional assay.

Several values for one entry are separate records, joined by “and”; a condition that tells them apart may be missing. Equal values may be shown once. Read-outs that look alike come from different tables or passages of the source. Ends that are not written are not given here. * marks the point of attachment. Myristoyl = CCCCCCCCCCCCCC(=O)*

`CCCCCCCCCc1cc(OC(=O)c2c(CCCCCCCCC)cc(O)cc2OC2OC(CO)C(O)C(O)C2O)cc(O)c1C(=O)O` (stereo not drawn) [exophillic acid]: in test [1] (plant-derived compounds), the “NTCP inhibition, selectivity virus binding vs bile acid transport” value is on record as “block NTCP in a nonselective manner”.

Consider “myr-preS1: myristoylated preS1 domain of the HBV large surface protein (Myristoyl-GQNLSTSNPLGFFPDHQLDPAFRANTANPDWDFNPNKDTWPDANKVG)”, for which the myr-preS1 binding result is “did not only bind myr-preS1 but also supported infection” in test [2] (84 to 87 humanized construct of mouse Ntcp); “resistant to myr-preS1 binding” in test [2] (158R NTCP variant found in OWM); “significantly reduced myr-preS1 binding” in test [2] (NTCP Q264A mutant, bile acid transport retained); “significantly reduced myr-preS1 binding” in test [2] (NTCP V272W mutant, intact bile acids transport); “sufficient to support myr-preS1 binding” in test [2] (R158G mutation of OWM Ntcp).

As to `CC[C@H]1[C@@H](O)[C@@H]2[C@H](CC[C@]3(C)[C@@H]([C@H](C)CCC(=O)O)CC[C@@H]23)[C@@]2(C)CC[C@@H](O)C[C@@H]12` [obeticholic acid], the “NTCP inhibition, selectivity virus binding vs bile acid transport” value in test [1] (bile acid derivatives) is “block NTCP in a nonselective manner”.

`O=C1[C@H](CC[C@H](O)c2ccc(F)cc2)[C@@H](c2ccc(O)cc2)N1c1ccc(F)cc1` [ezetimibe]: in test [1] (approved drugs), the “NTCP inhibition, selectivity virus binding vs bile acid transport” value was “block NTCP in a nonselective manner”.

“myr-preS1-AX568: C-terminally Alexa 568 fluorophore-coupled myr-preS1 peptide, amino acids 2 to 48 of the large HBV genotype D3 surface protein (Myristoyl-GQNLSTSNPLGFFPDHQLDPAFRANTANPDWDFNPNKDTWPDANKVG-{Alexa 568}; also: myristoylated (myr-preS1))”: in test [3], the “binding to the Y146A/F274A NTCP mutant compared with NTCPwt” value is on record as “much lower binding to the NTCP-Y146A/F274A mutant compared with NTCPwt”.

With `CC(C)c1nc(CN(C)C(=O)N[C@H](C(=O)N[C@@H](Cc2ccccc2)C[C@H](O)[C@H](Cc2ccccc2)NC(=O)OCc2cncs2)C(C)C)cs1` [ritonavir], the “NTCP inhibition, selectivity virus binding vs bile acid transport” value in test [1] (approved drugs) was “block NTCP in a nonselective manner”.

Consider `CCC(C)CC(C)C(=O)OC1(C)C(=O)c2c(cc(O)c3c2CC(O)CC3C)C(C)(O)C1=O` (stereo not drawn) [vanitaracin A], for which the “NTCP inhibition, selectivity virus binding vs bile acid transport” value in test [1] (plant-derived compounds) is recorded as “block NTCP in a nonselective manner”.

As for `CN(CCOc1ccc(CC2SC(=O)NC2=O)cc1)c1ccccn1` (stereo not drawn) [rosiglitazone], the “NTCP inhibition, selectivity virus binding vs bile acid transport” value in test [1] (approved drugs) is on record as “block NTCP in a nonselective manner”.

In the case of `CCCCC1=NC2(CCCC2)C(=O)N1Cc1ccc(-c2ccccc2-c2nnn[nH]2)cc1` [irbesartan], the “NTCP inhibition, selectivity virus binding vs bile acid transport” value in test [1] (approved drugs) is reported as “block NTCP in a nonselective manner”.

Regarding `C=C(C)[C@@H]1CC[C@]2(C(=O)O)CC[C@]3(C)[C@H](CC[C@@H]4[C@@]5(C)CC[C@H](O)C(C)(C)[C@@H]5CC[C@]43C)[C@@H]12` [betulinic acid], the “NTCP inhibition, selectivity virus binding vs bile acid transport” value in test [1] (plant-derived compounds) is recorded as “block NTCP in a nonselective manner”.

B1: wild-type myr-preS1 peptide of HBV genotype D (unlabelled) (peptide)
peptide: GQNLSTSNPLGFFPDHQLDPAFRANTANPDWDFNPNKDTWPDANKVG
modifications: not fully specified (N-terminus); also: myristoylated (myr-preS1)
notes: also called myr-preS1 WT; wild-type myr-preS1 peptide (genotype D)
As for B1, the IC50 in test [4] was 99 nM and 168 nM. Moreover, the “inhibition of [3H]TCA (1 μM) transport via NTCP in NTCP-HEK293 cells, 10 minutes at 37 °C, IC50” value in test [5] is 111 nM and 221 nM.

B2: W41G mutant myr-preS1 peptide of HBV genotype D (peptide)
peptide: GQNLSTSNPLGFFPDHQLDPAFRANTANPDWDFNPNKDTGPDANKVG
modifications: not fully specified (N-terminus); also: myristoylated (myr-preS1)
notes: also called myr-preS1-W41G; myr-preS1 W41G peptide; source: bought: ProteoGenix S.A.S
Consider B2, for which the IC50 in test [4] was 422 nM and 298 nM. For the same molecule, in test [5], the “inhibition of [3H]TCA (1 μM) transport via NTCP in NTCP-HEK293 cells, 10 minutes at 37 °C, IC50” value is 386 nM and 397 nM.

Broadly, the IC50 is the concentration at which inhibition is half-maximal. A high value points to lower potency.
